Experimental findings from US8653048B2 (Sanlugen Pharmatech Ltd., priority 2009, dated 2014) are described below.

What is called IC50 is the concentration that inhibits the measured activity by half.

Each structure is given as a SMILES string.

In data set [1] the test system is HT29: a human colon cancer cell line. Kind of data set: MTT analytical method, HT29 cells. The format is cell-based. The following applies: HT-29, 72 h. (In general: Formazan colour is commonly taken as a measure of viable cells.)
Data set [2] deals with SGC7901: a human gastric cancer line. Kind of data set: MTT analytical method, SGC7901 cells. The format is cell-based. The following applies: SGC-7901, 72 h. The source says: MTT analytical method was used to test the prodrugs for various tumor cells.
• 1) Cell lines: NCI-H460, A549, LOVO, HT-29, MDA-MB-231, SGC7901, HepG2 or BEL-7402 cell lines. Culture: adherent culturing in D-MEM (Hyclone, Inc.) containing 10% fetal calf serum. The initial cell concentration was about 3×10^5 /mL. The cell was passaged by 1:3 dilution in every 2-3 days. On the day before the test, the cell was passaged by 1:2 dilution, the cell concentration for the test was 5-10×10^5 /mL. • 2) Dissolution and dilution of compounds: according to the weight and molecular weight of the drugs provided, 100-200 μL of DMSO was added. Then normal saline was added to make the final diluted concentration of the drugs be 5 mM (Note that the final concentration of DMSO should not be more than 10%). • 3) D-MEM or RPMI 1640 cell culture medium, Gibco, Inc. • 4) Fetal calf serum Hyclone, Inc. • 5) Cell dissociation buffer, 0.25% Trypsin+0.02% EDTA. • 6) MTT solution, MTT Powder (Sigma) were dissolved in PBS buffer solution to make a solution of 5 mg/mL. The solution was filtered by a 0.22 μm micropore membrane and stored at −20° C. • 7) PBS buffer solution. • 8) 10% acidified SDS, 0.01N HCl. • 9) Centrifuge tubes, haustorial tubes etc. (BD, Inc.); 96-well plates (Costatr, Inc.) Procedures: • 1) Cell inoculation: Cells grown for 24 hours after passage, which cells were in good growth state, were used. The cells were harvested by the routine method. The cell concentration was adjust with a fresh culture solution to 2×10^5/mL (for adherent cells)-3×10^5/mL (for suspension cells). The adherent cells were inoculated at 100 μL/well and then cultivated in an incubator with 5% CO2 at 37° C. for 24 h. Thereafter the used culture solution was removed and 95 μL/well of fresh culture solution was added. The suspension cells were inoculated at 95 μL/well directly. • 2) Drugs treatment: 9 concentration grades were designed for every drug, and every concentration had 3 wells. The control group had 5 wells. The control group was tested simultaneously in each test. The final concentrations of a drug added were […], and 5 μL normal saline was added to the control group. • 3) Cell culture and detection: the cells were cultured in an incubator with 5% CO2 at 37° C. for 72 h after the drug was added, then 10 μL MTT was added to each well and the culture was continued for 4 h. 100 μL of 10% SDS (containing 0.01N HCl) was added to each well. After 24 h, the absorbance (A) of each well was determined by Bio-rad 680 ELISA with the detection wavelength of 570 nm and the reference wavelength of 630 nm. Calculation:
First, the absorbance (A) of each well was averaged (removing any data with big difference). […] A0 was the mean absorbance of the control wells. The effect curve of the drug concentration was drawn using EXCEL software and the drug concentration for 50% cell survival was calculated according to an appropriate computing methods.

The subject of data set [3] is H460 cells, a human lung cancer cell line, inoculated in nude mice. Description: H460 tumor in nude mice, oral administration of SL-01. The format is in vivo, Balb/c female nude mice. The following applies: for Tumor Weight, Average Value: end of the experiment; for drop of animal weight: figure fits day 22 versus negative control (Table 13). Here is the method:
1. […] Suspension formulation was prepared using 2.5% starch for intragastric administration. […] In the test, it was dissolved in normal saline and filtered with microfiltration membrane and administrated by tail vein injection. Positive control drug: Ftorafur (FT-207) produced by Qilu Pharmaceutical Co. Ltd., oral formulation.
2. Experimental animals: 50 Balb/c female nude mice at 4-5 weeks old, purchased from Peking University Health Science Center.
1. Culture of tumor cells: H460 cells were cultured in an incubator with 5% CO2 at 37° C. using RPMI-1640 nutrient solution containing 10% fetal calf serum. The cells were passaged through routine method.
2.2 Method of inoculating tumor cells in nude mice: cells were collected when they grew to about […] in culture flasks. Cells were washed twice with PBS before they were digested, then 1.5 mL of digestion solution juices was added into every bottle. They were observed under a microscope and the digestion was terminated after the cells were shed. Cell suspension was collected into 50 mL of centrifugal tube and centrifuged and washed twice with PBS. It was counted and suspended with 10 mL of normal saline to get the tumor cell suspension of inoculated nude mice. The tumor cells (1×10^7/0.2 mL) were inoculated in the left front armpits of mice. The tumor growth was observed after the inoculation.
4. Evaluation protocols for drug treating effect: these mice were weighed before drug administration and every week thereafter. The long tumor pathline (a) and the short tumor pathline (b) were measured at the same time. The formula for calculating the tumor volume is V=(a×b^2)/2. Mice were euthanized after drug administration for 3 weeks. The tumor was taken out and weighed. […] W was the tumor weight of the treatment group.

Data set [4] can be described thus: Dissolution in water (description of material). The format is physicochemical. The following applies: white powder.
The mark [5] stands for this setting: SL-01 middle dosage 60 mg/kg gavage.
[6] abbreviates: SL-01 middle dosage group 60 mg/kg gavage.
[7] abbreviates: SL-01 small dosage 30 mg/kg gavage.
The mark [8] stands for this setting: SL-01 small dosage group 30 mg/kg gavage.

Take `Nc1ccn([C@@H]2O[C@H](CO)[C@@H](O)C2(F)F)c(=O)n1` [Gemcitabine, gemcitabine, reference compound]: the IC50 is 7 µM in data set [1] and above 16 µM in data set [2]. The “Mean Volume of Tumor” value in data set [3] (Gemcitabine 30 mg/kg i.v. 1 per 3 days, day 7) was 700.7 mm^3; in data set [3] (Gemcitabine 30 mg/kg i.v. 1 per 3 days, day 14) it was 759.7 mm^3; in data set [3] (Gemcitabine 30 mg/kg i.v. 1 per 3 days, day 18) it was 804.5 mm^3; in data set [3] (Gemcitabine 30 mg/kg i.v. 1 per 3 days, day 22), 868.0 mm^3. Further, the “Mean Weight of Nude Mice” value in data set [3] (Gemcitabine 30 mg/kg i.v., day 0) amounted to 19.1 g; in data set [3] (Gemcitabine 30 mg/kg i.v., day 7), 19.0 g; in data set [3] (Gemcitabine 30 mg/kg i.v., day 14), 18.6 g; in data set [3] (Gemcitabine 30 mg/kg i.v., day 22), 18.2 g. In addition, in data set [3] (Gemcitabine 30 mg/kg i.v.), the “Tumor Weight, Average Value” was determined as 0.89 g. In data set [3] (gemcitabine group 30 mg/kg i.v.), the “efficacy by t-test, in words” value is “significant efficacy”. The “solubility in water, in words” value in data set [4] was “can be easily dissolved in water”.
Consider `CCCCCCCCCCCCOC(=O)c1nccnc1C(=O)Nc1ccn([C@@H]2O[C@H](CO)[C@@H](O)C2(F)F)c(=O)n1` [Compound 4, Dodecyl-3-((1-((2R,4R,5R)-3,3-difluoro-4-hydroxy-5-(hydroxymethyl)-tetrahydrofuran-2-yl)-2-oxo-1,2-dihydropyrimidin-4-yl)carbamoyl)pyrazine-2-carboxylate], for which the results for the IC50 in data set [1] and in data set [2] were 2 µM and above 16 µM, respectively. Also, the “Mean Volume of Tumor” value in data set [3] (SL-01 middle dosage 60 mg/kg gastric gavage 1 per 3 days, day 7) was found to be 739.6 mm^3; in data set [3] (SL-01 middle dosage 60 mg/kg gastric gavage 1 per 3 days, day 14) it was 823.4 mm^3; in data set [3] (SL-01 middle dosage 60 mg/kg gastric gavage 1 per 3 days, day 18), 870.2 mm^3; in data set [3] (SL-01 middle dosage 60 mg/kg gastric gavage 1 per 3 days, day 22), 905.3 mm^3; in data set [3] (SL-01 small (low) dosage 30 mg/kg gastric gavage 1 per 3 days, day 7), 761.3 mm^3; in data set [3] (SL-01 small (low) dosage 30 mg/kg gastric gavage 1 per 3 days, day 14) it was 840.9 mm^3. Further, the “Mean Volume of Tumor” value was found to be 950.5 mm^3 in data set [3] (SL-01 small (low) dosage 30 mg/kg gastric gavage 1 per 3 days, day 18) and 1092.0 mm^3 in data set [3] (SL-01 small (low) dosage 30 mg/kg gastric gavage 1 per 3 days, day 22). Also, the “Inhibition ratio (tumor weight)” value in data set [3] (setting [5]) is listed as 53.7%; in data set [3] (setting [7]), 48.3%. For the same compound, the “Mean Weight of Nude Mice” value amounted to 19.5 g in data set [3] (SL-01 middle dosage 60 mg/kg gavage, day 0); 19.1 g in data set [3] (SL-01 middle dosage 60 mg/kg gavage, day 7); 19.6 g in data set [3] (SL-01 middle dosage 60 mg/kg gavage, day 14); 19.6 g in data set [3] (SL-01 middle dosage 60 mg/kg gavage, day 22); 19.6 g in data set [3] (SL-01 small dosage 30 mg/kg gavage, day 0); 19.3 g in data set [3] (SL-01 small dosage 30 mg/kg gavage, day 7). Further, the “Mean Weight of Nude Mice” value in data set [3] (SL-01 small dosage 30 mg/kg gavage, day 14) was 19.9 g; in data set [3] (SL-01 small dosage 30 mg/kg gavage, day 22) it was 19.7 g. The results for the “Tumor Weight, Average Value” in data set [3] (setting [5]) and in data set [3] (setting [7]) were 0.95 g and 1.06 g, respectively. The “efficacy by t-test, in words” value in data set [3] (setting [6]) and in data set [3] (setting [8]) was “significant efficacy” each time. Further, the results for the “drop of animal weight” value in data set [3] (setting [6]) and in data set [3] (setting [8]) were 14.8% and 14.3%, respectively. The “solubility in water, in words” value in data set [4] was “cannot be dissolved in water well”.
